Results reported in patent US9890126B2 (priority 2012, dated 2018).
Where two headings read alike, the source gives them in different places. Marks after values point to notes of the source that are not given here.

Columns and labels:
IspF = IspF (Burkholderia pseudomallei, UniProt Q3JRA0); test: biochemical; type: binding
Burkholderia [1] = conditions: relative to DMSO control; 0.00 = growth with inhibitor equal to or greater than DMSO control
B. pseudomallei = type: cell-based, Burkholderia pseudomallei; conditions: for concentration effects on growth of B. pseudomallei over time: 1 mM to 31.25 μM, FIGS. 3-10, strains 1026b and 340
Plasmodium falciparum = test: Antimalarial initial tests, three strains of drug resistant malaria; conditions: all three strains of drug resistant malaria
Burkholderia [2] = test: microbe, parasite or virus in culture; conditions: read-out: inhibition against Burkholderia

Chain of IspF (Q3JRA0 whole entry, looked up): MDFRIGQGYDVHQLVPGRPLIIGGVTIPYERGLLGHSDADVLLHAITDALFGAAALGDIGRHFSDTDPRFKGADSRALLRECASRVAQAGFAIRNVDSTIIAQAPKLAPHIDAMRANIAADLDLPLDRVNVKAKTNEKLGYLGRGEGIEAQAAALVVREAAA

| Structure (SMILES) | Kd (IspF; pH 7.4) | % Growth Inhibition Endpoint (24 h) (Burkholderia [1]) | further results |
| --- | --- | --- | --- |
| O=C([O-])c1cnc(NCCc2ccc(Cl)cc2)nc1[O-].[Na+].[Na+] [HGN-0028] | – | – | Kd (IspF): 305 µM; % Growth Inhibition Growth Curve (Burkholderia [1]): 68.20 ± 2.12%; concentration effects on growth of B. pseudomallei over time (B. pseudomallei): dose dependent; growth of B. pseudomallei over time (B. pseudomallei; FIG. 2): inhibited the growth; B. pseudomallei growth inhibition at lower concentrations (B. pseudomallei; lower concentrations): did not inhibit |
| Oc1ccc(-n2ccnc2)cc1 [HGN-0029] | – | – | % Growth Inhibition Growth Curve (Burkholderia [1]): 23.58 ± 0.54%; concentration effects on growth of B. pseudomallei over time (B. pseudomallei): did not inhibit the growth |
| CCOC(=O)c1cnc(Nc2ccc3cn[nH]c3c2)[nH]c1=O [HGN-0040, Ethyl 2-((1H-indazol-6-yl)amino)-6-oxo-1,6-dihydropyrimidine-5-carboxylate] | no binding | 16.39 ± 6.29% | – |
| CCOC(=O)c1cnc(Nc2ccc(CC(=O)O)cc2)[nH]c1=O [HGN-0041, 2-(4-((5-(ethoxycaronyl)-6-oxo-1,6-dihydropyrimidin-2-yl)amino)phenyl)acetic acid] | not soluble | 0.00^b % | – |
| CCOC(=O)c1cnc(Nc2ccc3[nH]ncc3c2)[nH]c1=O [HGN-0042, Ethyl 2-((1H-indazol-5-yl)amino)-6-oxo-1,6-dihydropyrimidine-5-carboxylate] | not soluble | 20.70 ± 0.71% | – |
| O=C([O-])c1cnc(Nc2ccc3cn[nH]c3c2)nc1[O-].[Na+].[Na+] [HGN-0045, Sodium 2-((1H-indazol-6-yl)amino)-4-oxoidopyrimidine-5-carboxylate] | non specific | 0.00^b % | – |
| O=C([O-])c1cnc(Nc2ccc3[nH]ncc3c2)nc1[O-].[Na+].[Na+] [HGN-0046, Sodium 2-((1H-indazol-5-yl)amino)-4-oxoidopyrimidine-5-carboxylate] | non specific | 15.12 ± 4.25% | – |
| O=C([O-])c1cnc(NCc2ccco2)nc1[O-].[Na+].[Na+] [HGN-0049] | – | 12.25 ± 0.40% | antimalarial potency in initial tests (Plasmodium falciparum): submicromolar |
| Oc1ccc(-c2cncn2CCc2ccc(Cl)cc2)cc1 [HGN-0051] | – | 0.00^b % | antimalarial potency in initial tests (Plasmodium falciparum): potent |
| O=C(O)c1cnc(NCCc2ccc(Cl)cc2Cl)nc1O [HGN-0118] | – | – | inhibition at 1000 µM (Burkholderia [2]): 94.5% |
